Square brackets hold non-standard residues; d marks the D form. Peptide text beside a SMILES is read from it. * marks the point of attachment. Nle = CCCC[C@H](N)C(=O)O; Cbz = O=C(OCc1ccccc1)*; CH2F = FC*
Tests used:
Assay type in all cases: cell-based
[1] = test system: rat hepatic stellate cells; assay: Morphology and detachment of culture-activated rat hepatic stellate cells (light microscopy); conditions: rat HSC; for effect on morphologic alterations / detachment caused by gliotoxin: with 1.5 μmol/L gliotoxin, Z-VAD-FMK 100 μmol/L, PDTC 300 μmol/L, tamoxifen 100 μmol/L, m-IBG 250 (mmol/L in the source), quin-2-am 50 μmol/L
Description: Rat hepatic stellate cells (HSCs) were isolated by pronase/collagenase perfusion and purified by isopycnic density centrifugation in Opti-prep™ (Nycomed, Amersham, England) and elutriation essentially as previously described (Bahr et al., Hepatology (1999) 29:839-848). Human hepatic stellate cells were isolated from discarded resected liver via a similar protocol (Trim et al., J. Biol. Chem., (2000) 275:6657-6663). The use of human liver tissue for scientific investigation was approved by the UK South and West Local Research Ethics Committee and was subject to patient consent.
It has been shown recently that liver myofibroblasts may contribute to liver fibrogenesis and that liver myofibroblasts may have the potential to contaminate passaged hepatic stellate cell cultures (Knittel et al., Gastronenterology, (1999) 117:1205-1221). In this study, only primary cultures of hepatic stellate cells were used, which were desmin and glial fibrillary acid protein positive (markers shown to be expressed in hepatic stellate cells, but not liver myofibroblasts—Knittel et al., supra).
(§1) Cells were treated with gliotoxin dissolved in DMSO vehicle (added to medium from a 2000-fold molar concentrated stock). Control cells received DMSO vehicle only (i.e., 0.05% vol/vol). All other additions to culture medium were made from concentrated stocks dissolved in DMSO or by direct addition to culture medium. Protein contents of wells were determined using the Lowry assay (Lowry et al., J. Biol. Chem., (1951)193: 265-275).
Culture activated rat (14 day) and human (24 day) hepatic stellate cells were treated with DMSO solvent control or 1.5 μMol/L gliotoxin. […] Hepatic stellate cells changed from a flattened fibroblastic phenotype with distinct cell-cell interfaces to a substratum detached, rounded, and blebbed morphology.

[2] = test system: NF-kB DNA binding activity; assay: Electromobility shift assay for NF-kB DNA binding activity in rat hepatic stellate cells; conditions: activated rat HSC; for TNF-α-inducible NF-kB DNA binding activity: 10 ng/mL TNF-α, same concentrations as for constitutive activity; for constitutive NF-kB DNA binding activity: gliotoxin 1.5 μmol/L, N-acetyl cysteine 5 mM, calpain inhibitor 1 50 μM, dexamethasone 0.5 μm, pentoxyfilline 3.6 mM
Description: Crude high salt extractable nuclear protein was prepared from activated hepatic stellate cells for analysis of NF-kB DNA binding activity essentially as described (Elsharkawy et al., supra), aliquoted and stored at −80° C. until required. Extract protein concentrations were determined using the Lowry colorimetric assay (Lowry et al., supra) with bovine serum albumin as standard. A double stranded 5′ end labeled radiolabeled oligonucleotide [sense 5′-[…]-[…] (SEQ ID NO:1)] containing a consensus NF-kB DNA binding site as underlined (Baldwin et al., Annu. Rev. Immunol., (1996) 14:649-681) was used to determine NFkB DNA binding activity in crude nuclear extracts (Elsharkawy et al., supra).
The effect of gliotoxin on NF-kB activity in hepatic stellate cells was investigated. Culture-activated (14-day) rat hepatic stellate cells were incubated in the presence or absence of 10 ng/mL TNF-α fifteen minutes after addition of:
After a further 30 minutes, and before any significant morphologic changes, cells were washed with ice-cooled PBS, nuclear extracts prepared, and NF-kB DNA binding activity assessed by gel shift analysis. […] Each lane contained […] of protein and the results were the same for at least three separate experiments.

[3] = test system: caspase 3 activity in rat hepatic stellate cells; assay: Caspase 3 (Ac-DEVD-pNA cleavage) activity in rat hepatic stellate cells; conditions: 20 μmol/L Z-VAD-FMK with 1.5 μmol/L gliotoxin, three hours
Description: Hepatic stellate cells cultured in 100 mm diameter dishes (Greiner, Frickenhausen, Germany) were harvested and pelleted by centrifugation. The medium supernatant was discarded and the cell pellet was washed in 1 mL of ice-cooled phosphate buffered saline (PBS). Caspase 3 (DEVDase) activity was determined using a colorimetric CaspACE kit (Promega, Southampton, England) using the manufacturer's instructions.
Caspase 3 (Ac-DEVD-pNA cleavage) activity was then examined in control and gliotoxin-treated hepatic stellate cells. Culture activated rat hepatic stellate cells (14 days) in 100 mm diameter plates were treated with 0.05% (vol/vol) DMSO, 1.5 μmol/L gliotoxin, 20 μmol/L Z-VAD-FMK or 200 μmol/L chlorpromazine for three hours. The cells were then harvested for examination of caspase 3 activity as outlined in the materials and methods sections.

[4] = test system: rat hepatic stellate cells; assay: Low molecular weight DNA fragmentation (nucleosomal ladder) in rat hepatic stellate cells; conditions: four hours; for effect on gliotoxin-induced cleavage of DNA to a nucleosomal ladder: with 1.5 μmol/L gliotoxin, PDTC 300 μmol/L, tamoxifen 100 μmol/L, m-IBG 250 (mmol/L in the source), cyclosporin 10 μmol/L, quin-2-am 50 μmol/L
Description: (§2) Hepatic stellate cells cultured in 35-mm diameter dishes (Greiner) were harvested, pelleted by centrifugation and DNA fragmentation determined as outlined elsewhere (Elsharkawy et al., Hepatology (1999) 30:761-769). Propidium Iodide Flow-Activated Cell Sorting Analysis Detached cells were pelleted by centrifugation, washed in PBS, and resuspended in HYPO buffer (0.1% wt/vol) Na3Citrate and 0.1% (wt/vol) Triton™ X-100 containing […] propidium iodide and incubated for 1 hour. The cells were then analyzed by fluorescence-activated cell sorter (FACS) with a Becton Dickinson (San Jose, Calif.) FACScan instrument using a 488 nm excitation wavelength with a band pass filter set at 530 nm. Attached cells were scraped in HYPO buffer after washing cells with PBS.
The effect of gliotoxin on the cleavage of DNA to a nucleosomal ladder was examined because this phenomenon is characteristic of apoptosis. Culture activated (14-day) rat hepatic stellate cells in six well plates were treated with either 0.05% (vol/vol) DMSO for four hours or 1.5 μmol/L gliotoxin for zero hours, half an hour, one hour, two hours or four hours. At each time point, both detached and attached cells were harvested together and low molecular weight DNA (20,000 g supernatant) fragmentation determined as outlined in the materials and methods section. At least three separate experiments were performed. 1 kilobase DNA ladder (Promega) was used as a molecular weight marker.
The effect of various compounds on DNA laddering was then determined. Culture-activated (14-day) rat hepatic stellate cells in six-well plates were treated with:
After fours hours of treatment, DNA fragmentation was determined.
Culture activated (14 day) rat hepatic stellate cells in six well plates were treated with: • (a) 0.05% (vol/vol) DMSO; • (b) 1.5 μmol/L gliotoxin; • (c) 1.5 μmol/L gliotoxin with 100 μmol/L tamoxifen; • (d) 1.5 μmol/L gliotoxin with […] actinomycin d; • (e) 1.5 μmol/L gliotoxin with 10 μmol/L cycloheximide; • (f) 1.5 μmol/L gliotoxin with 10 μmol/L cyclosporin; • (g) 1.5 μmol/L gliotoxin with […] m-iodobenzylguanidine; • (h) 1.5 μmol/L gliotoxin with 50 μmol/L quin-2-am; • (i) 50 μmol/L guin-2-am alone; • (j) 250 μmol/L m-iodobenzylguanidine; • (k) 10 μmol/L cyclosporin; • (l) 10 μmol/L cycloheximide; • (m) 1 μg/ml actinomycin d; or • (n) 100 μmol/L tamoxifen.
After four hours of treatment, DNA fragmentation was determined as outlined in Materials and Methods.

rat hepatocytes [5] = assay: Rat hepatocyte viability by attachment and trypan blue exclusion; conditions: 200 μmol/L, four hours
Description: Rat hepatocytes were isolated by collagenase perfusion essentially as previously described. (Harvey et al., Biochemical J., (1998) 331:273-281). Hepatocytes were cultured as outlined for hepatic stellate cells except that they were initially seeded onto collagen coated plates in William's medium E supplemented with 10% fetal calf serum and 1 μg/mL insulin for the first 2 hours.
as §1
The effect of various compounds on cell viability and attachment was determined. Viability of rat hepatocytes as judged by attachment and 0.1% (wt/vol) trypan blue exclusion after four hours treatment with: […]

rat hepatocytes [6] = assay: DNA laddering in rat hepatocytes; conditions: four hours; 50 μmol/L gliotoxin, 200 μmol/L chlorpromazine, 200 μmol/L methapyrilene, 10 ng/mL TNF-α with cycloheximide
Description: as §2
DNA laddering was also used to compare the effect of gliotoxin, chlorpromazine, methapyrilene and also the combination of TNF-α with cycloheximide on hepatocytes and hepatic stellate cells.

| Compound | TNF-α-inducible NF-kB DNA binding activity [2] | constitutive NF-kB DNA binding activity [2] | effect on morphologic alterations / detachment caused by gliotoxin [1] | effect on gliotoxin-induced cleavage of DNA to a nucleosomal ladder [4] | further results |
| --- | --- | --- | --- | --- | --- |
| CCCC[C@@H](C=O)NC(=O)[C@H](CC(C)C)NC(=O)[C@H](CC(C)C)NC(C)=O [Calpain inhibitor 1] (Ac-Leu-Leu-[Nle]-aldehyde) | inhibited the formation and altered the mobilities | inhibited the formation and altered the mobilities | – | – | apoptosis judged by morphologic and biochemical criteria (caspase 3 induction, nucleosomal ladder) ([1]; 50 μM calpain inhibitor 1): did not result in the apoptosis of rat hepatic stellate cells |
| CC(=O)N[C@@H](CS)C(=O)O [N-acetyl cysteine] | little effect | little effect | – | – | – |
| COC(=O)C[C@H](NC(=O)[C@H](C)NC(=O)[C@@H](NC(=O)OCc1ccccc1)C(C)C)C(=O)CF [Z-VAD-FMK, benzyloxycarbonyl-Val-Ala-Asp-fluoromethylketone] (Cbz-Val-Ala-Asp(OMe)-CH2F) | – | – | did not prevent the morphologic alterations caused by gliotoxin | – | effect on gliotoxin-induced caspase 3 activity [3]: inhibited by cotreatment; inhibition of gliotoxin-induced nucleosomal ladder ([4]; Z-VAD-FMK 1 μmol/L with 1.5 μmol/L gliotoxin): substantial inhibition; inhibition of gliotoxin-induced nucleosomal ladder ([4]; Z-VAD-FMK 100 and 10 (m/L printed) with 1.5 μmol/L gliotoxin): inhibited completely |
| N=C(N)NCc1cccc(I)c1 [m-iodobenzylguanidine] | – | – | did not prevent the detachment of hepatic stellate cells from the substratum | prevented the cleavage of DNA to a nucleosomal ladder | – |
| CN(C)CCN(Cc1cccs1)c1ccccn1 [methapyrilene] | – | – | – | – | hepatocytes that do not exclude trypan blue, compared with 50 μmol/L gliotoxin (rat hepatocytes [5]): a level similar; cleavage of hepatocyte DNA to a nucleosomal ladder (rat hepatocytes [6]): only hepatocytes treated with TNF-α and cycloheximide cleaved their DNA to a nucleosomal ladder |
| CC(=O)CCCCn1c(=O)c2c(ncn2C)n(C)c1=O [pentoxyfilline] | little effect | little effect | – | – | – |
| COc1cc(N(CC(=O)OCOC(C)=O)CC(=O)OCOC(C)=O)c2nc(COc3cc(C)ccc3N(CC(=O)OCOC(C)=O)CC(=O)OCOC(C)=O)ccc2c1 [quin-2AM] | – | – | without preventing cell detachment | blocks DNA cleavage | – |
| CC/C(=C(\c1ccccc1)c1ccc(OCCN(C)C)cc1)c1ccccc1 [tamoxifen] | – | – | did not prevent the detachment of hepatic stellate cells from the substratum | prevented the cleavage of DNA to a nucleosomal ladder | – |

Reference: US20080220056A1, “Treatment for liver disease” (UNIVERSITY OF SOUTHAMPTON, priority 2002, published 2008)
